Laboratory results as given in PubChem BioAssay AID328 (DTP/NCI, 2004).
Where “and” joins values, the source holds several entries; their conditions need not be identical. Identical values can stand only once. Toxic doses and inconclusive results are not listed.

Tested on: BDF1 mice, P388 leukemia ip, median survival T/C
Assay: NCI In Vivo Anticancer Drug Screen. Data for tumor model P388 Leukemia (intraperitoneal) in B6D2F1 (BDF1) mice
Conditions: endpoint: median survival time, higher = longer survival
Outline: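 Survival ratio, drug arm over vehicle arm, in mice with a transplanted tumour.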

[1] = dose: 100.0 mg/kg/injection, schedule: Q01DX009 (ip), vehicle: Klucel (hydroxypropylcellulose) (HPC)
[2] = dose: 100.0 mg/kg/injection, schedule: Q04DX003 (ip), vehicle: Klucel (hydroxypropylcellulose) (HPC)
[3] = dose: 200.0 mg/kg/injection, schedule: Q04DX003 (ip), vehicle: Klucel (hydroxypropylcellulose) (HPC)
[4] = dose: 100.0 mg/kg/injection, schedule: Q01DX009 (ip), vehicle: saline with Tween-80
[5] = dose: 50.0 mg/kg/injection, schedule: Q04DX003 (ip), vehicle: saline with Tween-80

CCOCCOCCOCCCNCCCN1CC1
T/C (dose: 50.0 mg/kg/injection, schedule: Q01DX009 (ip), vehicle: saline): 187 % of control
T/C (dose: 100.0 mg/kg/injection, schedule: Q01DX009 (ip), vehicle: saline): 95 % of control
T/C (dose: 100.0 mg/kg/injection, schedule: Q04DX003 (ip), vehicle: saline): 177 % of control
T/C (dose: 200.0 mg/kg/injection, schedule: Q04DX003 (ip), vehicle: saline): 190 % of control

CC(Oc1cc(Cl)ccc1Cl)C(=O)O (configuration not stated)
T/C [1]: 90 % of control
T/C [2]: 100 % of control
T/C (dose: 200.0 mg/kg/injection, schedule: Q01DX009 (ip), vehicle: Klucel (hydroxypropylcellulose) (HPC)): 100 % of control
T/C [3]: 104 % of control
T/C (dose: 400.0 mg/kg/injection, schedule: Q01DX009 (ip), vehicle: Klucel (hydroxypropylcellulose) (HPC)): 113 % of control
T/C (dose: 400.0 mg/kg/injection, schedule: Q04DX003 (ip), vehicle: Klucel (hydroxypropylcellulose) (HPC)): 108 % of control

CC(=O)OC1C(CO)OC2C1Oc1nc(=N)c(F)cn12 (configuration not stated)
T/C (dose: 1.56 mg/kg/injection, schedule: Q01DX009 (ip), vehicle: saline): 176 % of control
T/C (dose: 3.13 mg/kg/injection, schedule: Q01DX009 (ip), vehicle: saline): 92 % of control and 102 % of control

NCC=C1C2CC3CC(C2)CC1C3
T/C (dose: 12.5 mg/kg/injection, schedule: Q04DX003 (ip), vehicle: saline): 103 % of control
T/C (dose: 25.0 mg/kg/injection, schedule: Q04DX003 (ip), vehicle: saline): 100 % of control
T/C (dose: 50.0 mg/kg/injection, schedule: Q04DX003 (ip), vehicle: saline): 100 % of control

O=[N+]([O-])c1ccc(/C=C/c2nccs2)o1
T/C [2]: 100 % of control
T/C [3]: 103 % of control

Clc1ccc(-n2nnc3cc(Cl)ccc32)c(Cl)c1
T/C [4]: 99 % of control

CC1(C)O[C@]2(C)CC[C@@H]1[C@@H](O)[C@@H]2N1CCCCC1
T/C (dose: 50.0 mg/kg/injection, schedule: Q01DX005 (ip), vehicle: saline with Tween-80): 109 % of control
T/C (dose: 100.0 mg/kg/injection, schedule: Q01DX005 (ip), vehicle: saline with Tween-80): 111 % of control
T/C (dose: 200.0 mg/kg/injection, schedule: Q01DX005 (ip), vehicle: saline with Tween-80): 97 % of control

N#CC1(c2ccc(Cl)cc2)CCC1
T/C [4]: 112 % of control
T/C (dose: 200.0 mg/kg/injection, schedule: Q01DX009 (ip), vehicle: saline with Tween-80): 108 % of control

NC(=O)NC1OC(COC(=O)c2ccccc2)C(OC(=O)c2ccccc2)C1OC(=O)c1ccccc1 (configuration not stated)
T/C [5]: 107 % of control
T/C (dose: 100.0 mg/kg/injection, schedule: Q04DX003 (ip), vehicle: saline with Tween-80): 90 % of control and 96 % of control
T/C (dose: 200.0 mg/kg/injection, schedule: Q04DX003 (ip), vehicle: saline with Tween-80): 93 % of control
T/C (dose: 400.0 mg/kg/injection, schedule: Q04DX003 (ip), vehicle: saline with Tween-80): 87 % of control and 90 % of control

O=C1NC(c2cccc3ccccc23)Nc2ccc(Cl)cc21 (configuration not stated)
T/C (dose: 50.0 mg/kg/injection, schedule: Q01DX009 (ip), vehicle: Klucel (hydroxypropylcellulose) (HPC)): 160 % of control
T/C (dose: 75.0 mg/kg/injection, schedule: Q01DX009 (ip), vehicle: Klucel (hydroxypropylcellulose) (HPC)): 155 % of control
T/C [1]: 111 % of control

O=C1C=CC(=C(c2ccccc2)c2ccccc2)C=C1
T/C (dose: 12.5 mg/kg/injection, schedule: Q04DX003 (ip), vehicle: Klucel (hydroxypropylcellulose) (HPC)): 95 % of control
T/C (dose: 25.0 mg/kg/injection, schedule: Q04DX003 (ip), vehicle: Klucel (hydroxypropylcellulose) (HPC)): 100 % of control
T/C (dose: 50.0 mg/kg/injection, schedule: Q04DX003 (ip), vehicle: Klucel (hydroxypropylcellulose) (HPC)): 91 % of control

O=C(O)C(/C=N\Nc1ccccc1)=N\Nc1ccccc1
T/C (dose: 37.5 mg/kg/injection, schedule: Q01DX009 (ip), vehicle: saline with Tween-80): 110 % of control
T/C (dose: 75.0 mg/kg/injection, schedule: Q01DX009 (ip), vehicle: saline with Tween-80): 115 % of control
T/C (dose: 150.0 mg/kg/injection, schedule: Q01DX009 (ip), vehicle: saline with Tween-80): 118 % of control

C=CCOc1c(C)cc(C(C)(C)c2cc(C)c(OCC=C)c(C)c2)cc1C
T/C (dose: 25.0 mg/kg/injection, schedule: Q01DX001 (ip), vehicle: other): 104 % of control
T/C (dose: 50.0 mg/kg/injection, schedule: Q01DX001 (ip), vehicle: other): 109 % of control
T/C (dose: 100.0 mg/kg/injection, schedule: Q01DX001 (ip), vehicle: other): 95 % of control

CC1COC(Nc2cccc3c2CCCC3)=N1 (configuration not stated)
T/C (dose: 12.5 mg/kg/injection, schedule: Q04DX003 (ip), vehicle: saline with Tween-80): 100 % of control
T/C (dose: 25.0 mg/kg/injection, schedule: Q04DX003 (ip), vehicle: saline with Tween-80): 109 % of control
T/C [5]: 109 % of control
